Experimental data taken from publication PMC10197018 (Pediatric blood & cancer, 2021).
Like-named read-outs stand apart in the source and are kept apart here.

Tests used:
[1] = test system: colon carcinoma model; conditions: colon carcinoma model ref 34; cited from earlier work
[2] = cited from earlier work
[3] = test system: solid tumors; conditions: cited from earlier work
[4] = cited from earlier work; remark: listed apart in the source
[5] = human, in vivo, po, 70 mg/m2
[6] = clinical; conditions: human, plasma, oral
[7] = Plasma pharmacokinetics of sorafenib given with irinotecan; conditions: pediatric patients, combination therapy
[8] = single-agent sorafenib, same dose regimen ref 17; cited from earlier work
[9] = single agent, pediatric phase 1 trials ref 26, 27, 44

In the case of `CCc1c2c(nc3ccc(OC(=O)N4CCC(N5CCCCC5)CC4)cc13)-c1cc3c(c(=O)n1C2)COC(=O)[C@]3(O)CC` [Irinotecan], the growth delay [1] is listed as 71%, the absolute oral bioavailability ([2]; irinotecan solution ref 47) is listed as 17% and the AUC(0-inf) (human, plasma, po, 70 mg/m2) is listed as 594 ± 299 ng·h/mL. For the same molecule, the CMAX (human, plasma, po, 70 mg/m2) was 93.9 ± 60.8 ng/mL, the Tmax (human, plasma, po, 70 mg/m2) was 1.97 ± 0.85 h and the “mean dose-normalized CMAX (CMAX/D)” value (oral irinotecan 70 mg/m^2 with sorafenib, range 0.18–3.49) was 1.14 ng/mL/mg. For the same molecule, the “dose-normalized AUCINF (AUCINF/D)” value (oral irinotecan 70 mg/m^2 with sorafenib, range 1.7–19.5) was 7.1 ng·h/mL/mg, the “mixed response and/or SD rates” value [3, 9] was 20–26% and the partial response rates [3, 9] was 0 to 6%. The “MTD of oral irinotecan with temozolomide and vincristine” value ([4]; 5 days for 2 weeks with temozolomide 100 mg/m^2/day ref 33) was 35 mg/m^2/daily, the “MTD, short course oral irinotecan” value ([4]; daily for 5 days every 21 days, solid tumors, patients < 65 years of age ref 31) was 65 mg/m^2/dose and the “MTD, protracted course of oral irinotecan” value ([4]; daily × 5 days for 2 weeks, pediatric patients, with cefixime ref 30) was 60 mg/m^2/dose. The “MTD of oral irinotecan with temozolomide and vincristine” value ([4]; daily × 5 days with temozolomide 150 mg/m^2/day ref 33) was 90 mg/m^2/daily and the “MTD, protracted course of oral irinotecan with temozolomide” value ([4]; patients with neuroblastoma ref 32) was 60 mg/m^2/day.
For `CCc1c2c(nc3ccc(O)cc13)-c1cc3c(c(=O)n1C2)COC(=O)[C@]3(O)CC` [SN38, 7-ethyl-10-hydroxy camptothecin], the “extent of metabolic conversion from SN38 to SN38-G” value ([2]; adults ref 45, 46) is listed as 6.9–13.4, the CMAX ([2]; oral irinotecan 60 mg/m^2 in adults ref 47) is listed as 7.4 ± 4.4 ng/mL and the AUCINF ([2]; oral irinotecan study in adults ref 47) is listed as 58.7 ± 31 ng·h/mL. For the same molecule, the t1/2 ([2]; oral study in adults ref 47) was 11.9 h, the “extent of metabolic conversion from SN38 to SN38-G” value ([2]; other pediatric reports ref 48, 49) was 1.6–4.1 and the t1/2 ([2]; reported pediatric ranges ref 48) was 7.3 to 18.5 h. For the same molecule, the “mean extent of metabolic conversion from SN38 to SN38-G” value (oral irinotecan 70 mg/m^2 with sorafenib, pediatric patients) was 3.73.
For `CCc1c2c(nc3ccc(O[C@@H]4O[C@H](C(=O)O)[C@@H](O)[C@H](O)[C@H]4O)cc13)-c1cc3c(c(=O)n1C2)COC(=O)[C@]3(O)CC` [SN38-G], the AUCINF [5] was 62.1 ± 35.4 (57.0%) hr•ng/mL, the CMAX [5] was 5.50 ± 3.38 (61.4%) ng/mL and the Tmax [5] was 3.17 ± 1.09 (34.2%) hr. For the same molecule, the AUCINF ([2]; human, in vivo) was 30.8 to 153 ng·h/mL, the CMAX ([2]; in vivo, po, 60 mg/m2) was 21.7 ± 15.2 ng/mL and the AUCINF ([2]; in vivo, po) was 356 ± 348 ng·h/mL.
For `CNC(=O)c1cc(Oc2ccc(NC(=O)Nc3ccc(Cl)c(C(F)(F)F)c3)cc2)ccn1` [Sorafenib], the growth delay [1] is given as 100%, the Tmax [6] is given as 6.4 h and the “age-dependent difference in AUC” value [7] is given as “no significant age-dependent difference”. The “prolonged SD” value ([3]; phase 2, Wilms tumor, 2 of 10 patients ref 18) was 20%, the responses ([3]; phase 2, cohort with rhabdomyosarcoma ref 18) was “no responses” and the Tmax [8] was 4.98 h. For the same molecule, the “mean CMAX/D” value [8] was 8.33 ng/mL/mg.
